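In this assay, cells in 96-well plates receive the compound at five concentrations for 48 hours. Endpoints are linearly interpolated between the surrounding concentrations. GI50 = concentration required for 50% inhibition of growth.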 The source made the active and inactive calls. No stated cut-off is given here; in the data, active = GI50 up to about 1.1 µM and inactive = higher.
Assays:
Assay in all cases: NCI-60 cell line screen, 48 h
U-251 = tested on: U-251
HT-29 = tested on: HT-29
K562 = tested on: K562
SN12C = tested on: SN12C
MCF7 = tested on: MCF7
786-0 = tested on: 786-0
SW-620 = tested on: SW-620
PC-3 = tested on: PC-3
UACC-62 = tested on: UACC-62
SK-MEL-28 = tested on: SK-MEL-28
NCI-H226 = tested on: NCI-H226
MOLT-4 = tested on: MOLT-4
SR = tested on: SR
Hs-578T = tested on: Hs-578T
OVCAR-5 = tested on: OVCAR-5
RPMI-8226 = tested on: RPMI-8226
OVCAR-4 = tested on: OVCAR-4
HCT-116 = tested on: HCT-116
NCI-H460 = tested on: NCI-H460
SF-268 = tested on: SF-268
HCT-15 = tested on: HCT-15
T47D = tested on: T47D
UACC-257 = tested on: UACC-257
SNB-75 = tested on: SNB-75
OVCAR-8 = tested on: OVCAR-8
TK-10 = tested on: TK-10
OVCAR-3 = tested on: OVCAR-3
M14 = tested on: M14
SF-539 = tested on: SF-539
NCI-H23 = tested on: NCI-H23
HCC 2998 = tested on: HCC 2998
MDA-MB-435 = tested on: MDA-MB-435
HOP-62 = tested on: HOP-62
ACHN = tested on: ACHN
SF-295 = tested on: SF-295
RXF 393 = tested on: RXF 393
UO-31 = tested on: UO-31
SK-MEL-2 = tested on: SK-MEL-2
MDA-MB-231 = tested on: MDA-MB-231
HL-60 = tested on: HL-60
EKVX = tested on: EKVX
SK-OV-3 = tested on: SK-OV-3
IGROV-1 = tested on: IGROV-1
MDA-N = tested on: MDA-N
COLO 205 = tested on: COLO 205
LOX IMVI = tested on: LOX IMVI
A549 = tested on: A549
A498 = tested on: A498
SNB-19 = tested on: SNB-19
DU-145 = tested on: DU-145
KM12 = tested on: KM12
Malme-3M = tested on: Malme-3M
NCI/ADR-RES = tested on: NCI/ADR-RES
CAKI-1 = tested on: CAKI-1
HOP-92 = tested on: HOP-92
CCRF-CEM = tested on: CCRF-CEM
SK-MEL-5 = tested on: SK-MEL-5

For `S=C(Cc1ccc2c(c1)Sc1ccccc1O2)N1CCOCC1`, the GI50 (U-251) was 31.8 µM (inactive), the GI50 (HT-29) was 24.6 µM (inactive) and the GI50 (K562) was > 100 µM (inactive). For the same compound, the GI50 (SN12C) was > 100 µM (inactive), the GI50 (MCF7) was 36.7 µM (inactive) and the GI50 (786-0) was 56.9 µM (inactive). The GI50 (SW-620) was 43 µM (inactive), the GI50 (PC-3) was 28.3 µM (inactive) and the GI50 (UACC-62) was 28.6 µM (inactive). The GI50 (SK-MEL-28) was 59.7 µM (inactive), the GI50 (NCI-H226) was 28.8 µM (inactive) and the GI50 (MOLT-4) was 52.1 µM (inactive). For the same compound, the GI50 (SR) was 26.7 µM (inactive), the GI50 (Hs-578T) was 21.1 µM (inactive) and the GI50 (OVCAR-5) was > 100 µM (inactive). The GI50 (RPMI-8226) was 34.8 µM (inactive), the GI50 (OVCAR-4) was > 100 µM (inactive) and the GI50 (HCT-116) was 8.32 µM (inactive). For the same compound, the GI50 (NCI-H460) was 23.5 µM (inactive), the GI50 (SF-268) was 32.6 µM (inactive) and the GI50 (HCT-15) was 41.9 µM. For the same compound, the GI50 (T47D) was 38.7 µM (inactive), the GI50 (UACC-257) was 31.4 µM (inactive) and the GI50 (SNB-75) was 18.7 µM (inactive). The GI50 (OVCAR-8) was 30.5 µM (inactive), the GI50 (TK-10) was > 100 µM (inactive) and the GI50 (OVCAR-3) was 49.5 µM (inactive). The GI50 (M14) was 40.6 µM (inactive), the GI50 (SF-539) was 21.2 µM (inactive) and the GI50 (NCI-H23) was 46.2 µM (inactive). The GI50 (HCC 2998) was 86.1 µM (inactive), the GI50 (MDA-MB-435) was 29.4 µM (inactive) and the GI50 (HOP-62) was > 100 µM (inactive). For the same compound, the GI50 (ACHN) was 38.7 µM (inactive), the GI50 (SF-295) was 22.6 µM (inactive) and the GI50 (RXF 393) was 69.8 µM (inactive). For the same compound, the GI50 (UO-31) was 26.1 µM (inactive), the GI50 (SK-MEL-2) was 66.7 µM (inactive) and the GI50 (MDA-MB-231) was 58.7 µM (inactive). The GI50 (HL-60) was 16 µM (inactive), the GI50 (EKVX) was 30.3 µM (inactive) and the GI50 (SK-OV-3) was 49.9 µM (inactive). For the same compound, the GI50 (IGROV-1) was 33.7 µM (inactive), the GI50 (MDA-N) was 42.7 µM (inactive) and the GI50 (COLO 205) was 36.6 µM (inactive). For the same compound, the GI50 (LOX IMVI) was 45.4 µM (inactive), the GI50 (A549) was 35.7 µM (inactive) and the GI50 (A498) was 50.6 µM (inactive). The GI50 (SNB-19) was > 100 µM (inactive), the GI50 (DU-145) was > 100 µM (inactive) and the GI50 (KM12) was 29 µM (inactive). For the same compound, the GI50 (Malme-3M) was 23.8 µM (inactive), the GI50 (NCI/ADR-RES) was 24.8 µM (inactive) and the GI50 (CAKI-1) was 38.9 µM (inactive). For the same compound, the GI50 (HOP-92) was 30.6 µM (inactive).

For `Cc1ccc(/C=C2\NC(=S)N(CN3CCOCC3)C2=O)cc1`, the GI50 (U-251) was > 100 µM (inactive), the GI50 (HT-29) was > 100 µM (inactive) and the GI50 (CCRF-CEM) was > 100 µM (inactive). The GI50 (K562) was > 100 µM (inactive), the GI50 (SN12C) was > 100 µM (inactive) and the GI50 (MCF7) was 66.5 µM (inactive). For the same compound, the GI50 (786-0) was > 100 µM (inactive), the GI50 (SW-620) was > 100 µM (inactive) and the GI50 (PC-3) was > 100 µM (inactive). For the same compound, the GI50 (UACC-62) was > 100 µM (inactive), the GI50 (SK-MEL-28) was > 100 µM (inactive) and the GI50 (NCI-H226) was > 100 µM (inactive). For the same compound, the GI50 (MOLT-4) was > 100 µM (inactive), the GI50 (SR) was > 100 µM (inactive) and the GI50 (SK-MEL-5) was > 100 µM (inactive). The GI50 (Hs-578T) was > 100 µM (inactive), the GI50 (OVCAR-5) was > 100 µM (inactive) and the GI50 (RPMI-8226) was > 100 µM (inactive). For the same compound, the GI50 (OVCAR-4) was > 100 µM (inactive), the GI50 (HCT-116) was > 100 µM (inactive) and the GI50 (SF-268) was > 100 µM (inactive). For the same compound, the GI50 (HCT-15) was over 100 µM, the GI50 (UACC-257) was > 100 µM (inactive) and the GI50 (SNB-75) was > 100 µM (inactive). For the same compound, the GI50 (OVCAR-8) was > 100 µM (inactive), the GI50 (TK-10) was > 100 µM (inactive) and the GI50 (OVCAR-3) was > 100 µM (inactive). For the same compound, the GI50 (M14) was > 100 µM (inactive), the GI50 (NCI-H23) was > 100 µM (inactive) and the GI50 (MDA-MB-435) was > 100 µM (inactive). For the same compound, the GI50 (HOP-62) was > 100 µM (inactive), the GI50 (ACHN) was > 100 µM (inactive) and the GI50 (SF-295) was > 100 µM (inactive). The GI50 (UO-31) was > 100 µM (inactive), the GI50 (SK-MEL-2) was > 100 µM (inactive) and the GI50 (MDA-MB-231) was > 100 µM (inactive). For the same compound, the GI50 (EKVX) was > 100 µM (inactive), the GI50 (SK-OV-3) was > 100 µM (inactive) and the GI50 (IGROV-1) was > 100 µM (inactive). The GI50 (MDA-N) was > 100 µM (inactive), the GI50 (COLO 205) was > 100 µM (inactive) and the GI50 (LOX IMVI) was > 100 µM (inactive). The GI50 (A549) was > 100 µM (inactive), the GI50 (A498) was > 100 µM (inactive) and the GI50 (SNB-19) was > 100 µM (inactive). For the same compound, the GI50 (DU-145) was > 100 µM (inactive), the GI50 (KM12) was > 100 µM (inactive) and the GI50 (Malme-3M) was > 100 µM (inactive). The GI50 (NCI/ADR-RES) was > 100 µM (inactive) and the GI50 (HOP-92) was > 100 µM (inactive).

— ChEMBL document CHEMBL1201862, “PubChem BioAssay data set” (2004)
